pIC50: −log10 of the molar value. Active and inactive are the calls of the source.
How the values were obtained:
[1] = biological target: T1, 17-beta-hydroxysteroid dehydrogenase type 1 (Homo sapiens) (UniProt P14061); experiment: Inhibition of human recombinant 17-beta-HSD1 expressed in human HeLa cells using estrone as substrate preincubated for 30 mins prior substrate addition measured after 120 mins by spectrophotometry; type: cell-based
T1 sequence (whole entry): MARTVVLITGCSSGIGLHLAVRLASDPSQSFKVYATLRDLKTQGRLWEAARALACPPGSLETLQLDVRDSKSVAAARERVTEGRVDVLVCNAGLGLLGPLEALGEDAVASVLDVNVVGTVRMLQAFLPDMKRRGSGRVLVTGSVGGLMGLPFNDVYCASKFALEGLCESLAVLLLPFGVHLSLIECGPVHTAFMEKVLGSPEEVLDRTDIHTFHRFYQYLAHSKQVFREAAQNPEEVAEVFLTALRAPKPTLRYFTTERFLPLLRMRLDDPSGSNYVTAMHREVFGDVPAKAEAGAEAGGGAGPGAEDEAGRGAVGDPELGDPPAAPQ

[2] = biological target: T2, 17-beta-hydroxysteroid dehydrogenase type 2 (Homo sapiens) (UniProt P37059); experiment: Inhibition of human recombinant 17-beta-HSD2 expressed in human HeLa cells using estradiol as substrate preincubated for 30 mins prior substrate addition measured after 120 mins by spectrophotometry; type: cell-based
T2 sequence (whole entry): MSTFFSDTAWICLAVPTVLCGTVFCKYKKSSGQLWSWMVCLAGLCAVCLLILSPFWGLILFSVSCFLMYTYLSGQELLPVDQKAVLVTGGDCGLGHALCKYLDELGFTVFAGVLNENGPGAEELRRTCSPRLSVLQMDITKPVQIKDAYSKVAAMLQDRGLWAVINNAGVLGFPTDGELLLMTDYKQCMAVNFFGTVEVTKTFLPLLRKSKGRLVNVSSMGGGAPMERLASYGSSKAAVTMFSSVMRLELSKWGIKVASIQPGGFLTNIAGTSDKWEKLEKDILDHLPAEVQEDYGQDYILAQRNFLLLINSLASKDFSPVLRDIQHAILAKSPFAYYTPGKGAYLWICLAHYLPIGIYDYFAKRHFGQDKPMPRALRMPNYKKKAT

[3] = biological target: T3, Androgen receptor (Homo sapiens) (UniProt P10275); experiment: Agonist activity at human androgen receptor expressed in human HeLa cells assessed as DHT-induced response after 40 hrs by luciferase/beta-galactosidase-based reporter gene assay; type: functional, cell-based
T3 sequence (whole entry): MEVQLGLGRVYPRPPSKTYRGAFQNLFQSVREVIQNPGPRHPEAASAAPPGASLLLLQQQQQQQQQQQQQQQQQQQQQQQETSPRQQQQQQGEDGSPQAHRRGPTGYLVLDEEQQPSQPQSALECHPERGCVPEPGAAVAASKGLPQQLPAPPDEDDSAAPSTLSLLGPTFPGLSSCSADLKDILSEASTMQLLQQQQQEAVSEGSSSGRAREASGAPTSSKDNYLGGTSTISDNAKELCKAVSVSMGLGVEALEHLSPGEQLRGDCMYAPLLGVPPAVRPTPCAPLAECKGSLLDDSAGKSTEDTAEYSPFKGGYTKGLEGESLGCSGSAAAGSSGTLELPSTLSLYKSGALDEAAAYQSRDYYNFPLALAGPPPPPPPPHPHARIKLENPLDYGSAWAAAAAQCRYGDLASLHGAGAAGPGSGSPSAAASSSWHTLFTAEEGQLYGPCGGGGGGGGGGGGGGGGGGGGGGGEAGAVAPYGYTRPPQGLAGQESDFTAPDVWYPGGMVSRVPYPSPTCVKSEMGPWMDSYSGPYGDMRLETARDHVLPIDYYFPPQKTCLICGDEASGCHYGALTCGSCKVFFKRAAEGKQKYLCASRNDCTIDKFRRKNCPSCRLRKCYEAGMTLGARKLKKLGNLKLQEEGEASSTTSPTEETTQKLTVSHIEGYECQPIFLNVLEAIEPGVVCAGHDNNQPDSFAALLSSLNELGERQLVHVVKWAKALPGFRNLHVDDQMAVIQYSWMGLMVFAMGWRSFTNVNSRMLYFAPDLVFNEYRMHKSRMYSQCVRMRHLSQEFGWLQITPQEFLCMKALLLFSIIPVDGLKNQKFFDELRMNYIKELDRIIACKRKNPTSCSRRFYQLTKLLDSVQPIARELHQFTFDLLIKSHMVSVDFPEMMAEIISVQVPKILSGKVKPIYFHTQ

[4] = biological target: T4, Estrogen receptor (Homo sapiens) (UniProt P03372); experiment: Agonist activity at human Estrogen receptor ERalpha expressed in human HeLa cells assessed as DHT-induced response after 40 hrs by luciferase/beta-galactosidase-based reporter gene assay; type: functional, cell-based
T4 sequence (whole entry): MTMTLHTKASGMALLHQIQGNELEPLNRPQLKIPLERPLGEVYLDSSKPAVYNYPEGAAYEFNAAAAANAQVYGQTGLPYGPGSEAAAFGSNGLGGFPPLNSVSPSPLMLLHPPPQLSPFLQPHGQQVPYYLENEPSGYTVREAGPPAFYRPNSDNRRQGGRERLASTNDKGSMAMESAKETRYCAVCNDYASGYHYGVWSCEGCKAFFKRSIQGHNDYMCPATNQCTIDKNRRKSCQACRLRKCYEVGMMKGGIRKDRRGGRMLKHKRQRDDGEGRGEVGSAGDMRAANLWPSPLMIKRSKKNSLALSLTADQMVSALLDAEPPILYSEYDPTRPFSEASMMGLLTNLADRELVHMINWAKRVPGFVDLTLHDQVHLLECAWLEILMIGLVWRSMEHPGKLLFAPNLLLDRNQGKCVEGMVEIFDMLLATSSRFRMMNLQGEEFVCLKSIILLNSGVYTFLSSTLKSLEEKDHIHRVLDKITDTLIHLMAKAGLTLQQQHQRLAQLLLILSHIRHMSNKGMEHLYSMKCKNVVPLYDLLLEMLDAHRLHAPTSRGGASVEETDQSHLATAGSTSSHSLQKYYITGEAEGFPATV

[5] = biological target: T5, Glucocorticoid receptor (Homo sapiens) (UniProt P04150); experiment: Agonist activity at human Glucocorticoid receptor expressed in human HeLa cells assessed as DHT-induced response after 40 hrs by luciferase/beta-galactosidase-based reporter gene assay; type: functional, cell-based
T5 sequence (whole entry): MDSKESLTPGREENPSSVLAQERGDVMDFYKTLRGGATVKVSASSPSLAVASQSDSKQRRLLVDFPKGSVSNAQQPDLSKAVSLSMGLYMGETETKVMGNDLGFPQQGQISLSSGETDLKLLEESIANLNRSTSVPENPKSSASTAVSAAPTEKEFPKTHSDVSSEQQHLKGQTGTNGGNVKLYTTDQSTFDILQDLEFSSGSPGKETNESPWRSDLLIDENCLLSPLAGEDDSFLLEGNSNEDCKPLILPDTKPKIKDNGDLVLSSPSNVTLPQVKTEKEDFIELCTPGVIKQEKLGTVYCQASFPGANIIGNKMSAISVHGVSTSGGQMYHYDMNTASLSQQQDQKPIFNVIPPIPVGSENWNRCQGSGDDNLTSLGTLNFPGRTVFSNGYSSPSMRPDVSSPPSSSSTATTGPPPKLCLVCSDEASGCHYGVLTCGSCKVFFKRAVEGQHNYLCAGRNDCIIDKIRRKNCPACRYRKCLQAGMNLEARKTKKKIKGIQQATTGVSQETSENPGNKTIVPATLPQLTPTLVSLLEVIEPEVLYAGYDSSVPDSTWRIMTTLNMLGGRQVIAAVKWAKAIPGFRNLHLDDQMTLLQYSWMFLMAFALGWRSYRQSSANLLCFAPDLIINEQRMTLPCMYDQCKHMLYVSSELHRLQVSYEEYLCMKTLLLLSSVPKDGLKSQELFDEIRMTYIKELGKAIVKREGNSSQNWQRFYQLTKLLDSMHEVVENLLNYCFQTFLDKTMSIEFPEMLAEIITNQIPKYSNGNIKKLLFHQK

[6] = biological target: T3, Androgen receptor (Homo sapiens); experiment: Antagonist activity at human androgen receptor expressed in human HeLa cells assessed as inhibition of DHT-induced response after 40 hrs by luciferase/beta-galactosidase-based reporter gene assay; type: functional, cell-based
[7] = biological target: T4, Estrogen receptor (Homo sapiens); experiment: Antagonist activity at human ERalpha receptor expressed in human HeLa cells assessed as inhibition of DHT-induced response after 40 hrs by luciferase/beta-galactosidase-based reporter gene assay; type: functional, cell-based
[8] = biological target: T5, Glucocorticoid receptor (Homo sapiens); experiment: Antagonist activity at human GR receptor expressed in human HeLa cells assessed as inhibition of DHT-induced response after 40 hrs by luciferase/beta-galactosidase-based reporter gene assay; type: functional, cell-based
[9] = biological target: T6, 17-beta-hydroxysteroid dehydrogenase type 3 (Homo sapiens, UniProt P37058); conditions: hela
T6 sequence (P37058 whole entry): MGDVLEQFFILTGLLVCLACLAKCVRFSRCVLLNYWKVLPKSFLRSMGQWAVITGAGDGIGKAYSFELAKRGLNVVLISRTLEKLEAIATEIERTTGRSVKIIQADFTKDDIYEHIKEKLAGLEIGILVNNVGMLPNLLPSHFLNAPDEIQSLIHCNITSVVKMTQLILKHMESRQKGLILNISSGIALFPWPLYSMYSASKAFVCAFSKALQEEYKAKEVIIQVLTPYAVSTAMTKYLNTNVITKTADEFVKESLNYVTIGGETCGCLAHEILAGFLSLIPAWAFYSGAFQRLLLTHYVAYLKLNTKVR
Description: (§1) Inhibition of human recombinant 17-beta-HSD3 expressed in human HeLa cells using androstenedione as substrate preincubated for 30 mins prior substrate addition measured after 120 mins by spectrophotometry

[10] = biological target: T6, 17-beta-hydroxysteroid dehydrogenase type 3
Description: as §1

SMILES	inhibition [1]	inhibition [2]	Activity [3]	Activity [4]	Activity [5]	Activity [6]	Activity [7]	Activity [8]	IC50 [9]	pIC50 [10]
COc1ccc(N2C(=O)/C(=C(/c3ccc(O)c(Br)c3)C(F)(F)F)SC2=S)cc1	inactive	inactive	inactive	inactive	inactive	inactive	inactive	inactive	Not Active	–
NS(=O)(=O)c1ccc(N2C(=O)O/C(=C\c3ccc(O)c(Br)c3)C2=O)cc1	inactive	inactive	inactive	inactive	inactive	inactive	inactive	inactive	Not Active	–
COc1ccc(N2C(=O)O/C(=C\c3ccc(O)c(CN(C)C)c3)C2=O)cc1	inactive	inactive	inactive	inactive	inactive	inactive	inactive	inactive	Not Active	–
COc1ccc(N2C(=O)O/C(=C\c3ccc(O)c(C#N)c3)C2=O)cc1	inactive	inactive	inactive	inactive	inactive	inactive	inactive	inactive	Not Active	–
CN1CCC(N2C(=O)/C(=C/c3ccc(O)c(Br)c3)SC2=S)CC1	inactive	inactive	inactive	inactive	inactive	inactive	inactive	inactive	Not Active	–
O=C1NC(=S)S/C1=C\c1ccc(O)c(Br)c1	inactive	inactive	inactive	inactive	inactive	inactive	inactive	inactive	Not Active	–
COc1ccc(N2C(=O)O/C(=C\c3ccc(O)c(C(=O)O)c3)C2=O)cc1	inactive	inactive	inactive	inactive	inactive	inactive	inactive	inactive	Not Active	–
COc1ccc(N2C(=O)O/C(=C\c3cc(Cl)c(O)c(Cl)c3)C2=O)cc1	inactive	inactive	inactive	inactive	inactive	inactive	inactive	inactive	Not Active	–
O=C(O)c1ccc(N2C(=O)O/C(=C\c3ccc(O)c(Br)c3)C2=O)cc1	inactive	inactive	inactive	inactive	inactive	inactive	inactive	inactive	Not Active	–
CNC(=O)c1ccc(N2C(=O)O/C(=C\c3ccc(O)c(Br)c3)C2=O)cc1	inactive	inactive	inactive	inactive	inactive	inactive	inactive	inactive	–	7.25
CN(C)c1ccc(N2C(=O)O/C(=C\c3ccc(O)c(Br)c3)C2=O)cn1	inactive	inactive	inactive	inactive	inactive	inactive	inactive	inactive	–	8.40

Source: ChEMBL document CHEMBL2016457, “Discovery of potent and orally bioavailable 17β-hydroxysteroid dehydrogenase type 3 inhibitors” (Bioorg Med Chem, 2012)
